According to patent US9434701B2, “Aminoquinoxaline derivatives for treatment of neurodegenerative diseases” (CENTRE NATIONAL DE LA RECHERCHE SCIENTIFIQUE (CNRS), priority 2011, dated 2016):
Like-named read-outs stand apart in the source and are kept apart here.

Experiments:
[1] = passage of the blood-brain barrier, IP study: brain extract concentration by HPLC-MS/MS; format: in vivo, Rj Orl: SWISS mice; conditions: for concentration at 2 h: male, Rj Orl: SWISS, mouse, brain extract, ip, 70 mg/kg, IP 70 mg/kg, ± SEM
Protocol: Male Rj Orl: SWISS, mice, approximately 5 weeks old and weighing between 20 and 24 g at arrival (R Janvier Breeding Center, France) were kept in the animal room at constant temperature (22±1° C.) and controlled humidity (55±20%), with a 12-hour light/dark cycle (8:00 a.m.-8:00 p.m.). During the acclimation and study period, the mice had free access to food and water. All the experiments were conducted in compliance with the conditions of decree 2001-464 of May 29, 2001 relative to animal experimentation.
Two treatment modes were used: intraperitoneal (IP) administration for 1 or 2 days or oral or per os administration for 5 days.
The solution of compound 4bc to be injected at a concentration of 7.0 g/L was prepared in a carrier containing 10% Tween 20+20% DMSO+70% 0.9% NaCl in water.
Three animal groups were created: • mice who received the carrier by IP at 10 mL/kg (Group V, n=2), • mice treated with compound 4bc by IP at 70 mg/kg and at 10 mL/kg (Group T, n=6), • one untreated mouse that was used as a […] control during analysis.
Treated mice T2 and T3 received treatments as follows:
Treated mice T1, T4, T5 and T6 as well as the mice receiving the carrier V1 and V2 received the treatments/carriers as follows:
The mice were anesthetized by an injection of 0.1 mL of a 6% sodium pentobarbital solution and then the mice were infused to eliminate the compound present in the plasma with a 0.9% NaCl solution containing heparin (200 μL of heparin choay to 5000 IU/mL in one liter of 0.9% NaCl). Each animal was infused with a minimum of 50 mL of this solution. The mouse was then decerebrated and the cerebellum, brainstem and olfactory bulbs were removed by dissection.
For the IP study, the brain was dissected into two parts (right and left hemisphere).
Each mouse brain sample treated with compound 4bc was weighed, placed in MeOH (100 μl MeOH per 10 mg of brain tissue) and then mixed by sonication. The suspensions thus obtained were centrifuged at 14,000 g for 7 minutes at 4° C. for IP or at 27,000 g for 10 minutes, at 4° C. for oral administration. The supernatants, diluted by half in MeOH, were transferred into HPLC vials for analysis of the presence of compound 4bc by HPLC-MS/MS.
Detection and quantification, based on peak area, were done by HPLC-MS/MS in MRM mode.
The HPLC system was composed of a Dionex Ultimate 3000 pump equipped with a Dionex WPS-3000PL automatic sample injector. The mass spectrometer used is a Water-Micromass Quattro Ultima equipped with an electrospray ionization source and a triple quadrupole analyzer. Data was acquired and analyzed by Masslynx 3.5.
Liquid chromatography was performed in isocratic mode with a Nucleodur™ (Macherey-Nagel) C18, 125×2.1 mm column with a particle size of 5.0 μm. The mobile phase was composed of a mixture of two phases A and B, in a proportion of 30/70. Phase A was composed of 1% acetic acid in water (v/v). Phase B was composed of 1% acetic acid in MeOH (v/v). The flow rate was set at 0.2 mL/min; the injection volume was 5 μl.
The mass spectrometer was connected to the HPLC system by using an electrospray ionization source. A switching valve was programmed before injection of the sample for rinsing and equilibration of the capillary, so as to prevent any accumulation of salt in the source capillary. The capillary voltage was set at 4000 V and the cone voltage at 80 V; the source temperature was set at 120° C.; the desolvation gas (N2) was set at a flow rate of 529 and the temperature at 350° C. The mass spectra were obtained in positive mode. The parameters were optimized to obtain the maximum molecular ion ([M+H]^+) at m/z 236.41, corresponding to compound 4bc. Collision was done by argon and the energy was set at 30 eV in MS/MS mode for detecting mass transitions: m/z 236.41→117.08; 236.41→131.10 and 236.41→158.27.

[2] = toxicity: animal weight monitoring during per os treatment; format: in vivo
Protocol: Three groups were created: • mice who received the carrier orally at 10 mL/kg (Group V, n=4), • mice treated with compound 4bc orally at 150 mg/kg and at 10 mL/kg (Group T, n=6), • control mice who received no treatment (n=2). All the mice were treated or received the carrier twice daily for 4 days. On the 5th day, a last treatment was administered and the animals were euthanized between […]. after this last treatment according to the following plan:
The animals were weighed every day throughout the sub-chronic study in order to monitor their general condition. Animal weights were considered a good indicator of general health since a compound's toxicity is known to be characterized by loss of bodyweight over time.

Compound: Cc1nc2ccc(N)cc2nc1-c1ccccc1 [Compound 4bc]
- brain extracts at 4-6 h less concentrated than at 2 h post-treatment ([1]; IP): 2000 times
- elimination from the brain over time ([1]; IP): eliminated quickly from the brain
- mean value of extracts analyzed later lower than previously calculated (ratio of the means) ([1]; IP, 2 h brain extracts, stored at 4° C.): approximately 6 times
- detection in old brain extracts ([1]; IP, euthanized between 4 and 6 h after the last treatment, extracts stored 40 days at 4° C., n=8): detectable
- crossing of the blood brain barrier in vivo ([1]; intraperitoneal administration): able to cross the blood brain barrier
- concentration at 2 h ([1]; euthanized 2 h after last treatment, extracts stored 40 days at 4° C., n=4, read-out: mean concentration in old brain extracts): 1390 ng/mL
- concentration at 2 h ([1]; euthanized 2 h after the last treatment, n=3, read-out: mean concentration in brain extract): 8830 ng/mL
- adverse reactions ([2]; oral, 300 mg/kg/day over a 5-day treatment): without adverse reactions
- toxicity from animal weight gain ([2]; per os, 300 mg/kg/day, 5 days): absence of significant toxicity
